The values below come from patent US12209071B2, “Triazine derivatives for treating diseases relating to neurotrophins” (AlzeCure Pharma AB, priority 2018, dated 2025).

As a reminder, the EC50 is the midpoint of the concentration-response curve.

The target of one assay is T1, FGFR1 (Homo sapiens, UniProt P11362).
T1 construct: expressed in transfected cells; host or cells: U2OS (cryopreserved)
Briefly: Enzyme Fragment Complementation cell-based assay, FGFR1. The note with it: cryopreserved U2OS-cells expressing FGFR1; ligand 10 ng/mL; 3 hours incubation. The source says: (§1) A high throughput cell-based screen has been used to identify positive modulators of TrkA, TrkB and TrkC. The screen involves the use of cell-based assay overexpressing TrkA, TrkB or TrkC. The purpose of the assay is to identify compounds that modulate neurotrophin signalling (Forsell et al 2012). The assay can be used in inhibitor mode using a high concentration of ligand, in modulator mode using an intermediate concentration and in agonist mode using a low concentration of ligand.
(§2) The assay uses Enzyme Fragment Complementation (EFC) technique, which is a proximity-based assay. Briefly, cells used in this assay over-express two fusion proteins, i.e. the receptor, which can be either one of TrkA, TrkB, TrkC, IGF1R or FGFR1, fused to a small peptide of beta-galactosidase and an adaptor protein, i.e. SHC1 (or any other Trk-adaptor protein) fused to the major part of beta-galactosidase. […] The proximity between the small activating peptide on the receptor and the major part of beta-galactosidase on the adaptor protein leads to an active beta-galactosidase enzyme. The activation of the receptor is quantified by measuring the amount of active beta-galactosidase by its conversion of a non-luminescent substrate into a luminescent product.
(§3) U2OS-cells, over-expressing TrkA or TrkB or TrkC, are plated in 96- or 384-well plates and incubated overnight. Alternatively, cryopreserved HEK293-cells expressing IGFR1 or cryopreserved U2OS-cells expressing FGFR1 were plated in 96- or 384-well plates. On the following day, test compound was pre-mixed with ligand (NGF, BDNF, NT-3, IGF-1 or basic fibroblast growth factor (bFGF(FGF-2))) and the ligand-compound mixture is then added to the cells to yield a final ligand concentration of 10 ng/mL. After 3 hours of incubation at room temperature, the incubation is stopped by the addition of a beta-galactosidase substrate mixture containing detergents. The substrate mixture is incubated for 60 minutes at ambient temperature. The luminescence is thereafter read by the use of a plate reader.

Another assay concerns the target T2, IGF1R (Homo sapiens, UniProt P08069).
T2 construct: expressed in transfected cells; host or cells: HEK293 (cryopreserved)
Briefly: Enzyme Fragment Complementation cell-based assay, IGF1R. The note with it: cryopreserved HEK293-cells expressing IGFR1; ligand 10 ng/mL; 3 hours incubation.
Source text: as §1, §2, §3

For another assay, the target named is T3, TrkA (Homo sapiens, UniProt P04629).
T3 construct: expressed in transfected cells; host or cells: U2OS
T3 sequence (P04629 33-796): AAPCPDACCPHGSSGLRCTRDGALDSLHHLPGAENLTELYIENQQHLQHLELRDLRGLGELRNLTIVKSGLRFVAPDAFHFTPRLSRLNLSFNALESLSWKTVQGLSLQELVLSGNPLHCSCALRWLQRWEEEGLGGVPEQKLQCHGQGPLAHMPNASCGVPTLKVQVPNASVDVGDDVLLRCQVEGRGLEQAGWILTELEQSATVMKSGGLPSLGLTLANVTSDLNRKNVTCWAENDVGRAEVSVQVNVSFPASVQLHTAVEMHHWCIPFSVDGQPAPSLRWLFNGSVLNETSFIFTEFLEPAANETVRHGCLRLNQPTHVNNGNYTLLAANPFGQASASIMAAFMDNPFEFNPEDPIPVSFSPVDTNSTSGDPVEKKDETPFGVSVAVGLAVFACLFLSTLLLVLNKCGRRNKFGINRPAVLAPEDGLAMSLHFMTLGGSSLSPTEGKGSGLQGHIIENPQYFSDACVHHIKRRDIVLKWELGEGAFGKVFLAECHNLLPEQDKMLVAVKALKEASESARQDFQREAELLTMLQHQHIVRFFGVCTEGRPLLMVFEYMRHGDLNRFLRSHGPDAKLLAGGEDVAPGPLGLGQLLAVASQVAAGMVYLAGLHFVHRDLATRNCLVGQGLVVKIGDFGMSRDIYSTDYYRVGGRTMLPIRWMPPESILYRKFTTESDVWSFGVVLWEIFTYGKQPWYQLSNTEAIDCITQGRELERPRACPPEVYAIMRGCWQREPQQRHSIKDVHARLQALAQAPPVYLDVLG
Briefly: Enzyme Fragment Complementation cell-based assay, TrkA. The note with it: U2OS-cells over-expressing TrkA; ligand 10 ng/mL; 3 hours incubation.
Source text: as §1, §2, §3

The target in the next assay is T4, TrkB (Homo sapiens, UniProt Q16620).
T4 construct: expressed in transfected cells; host or cells: U2OS
T4 sequence (Q16620 32-822): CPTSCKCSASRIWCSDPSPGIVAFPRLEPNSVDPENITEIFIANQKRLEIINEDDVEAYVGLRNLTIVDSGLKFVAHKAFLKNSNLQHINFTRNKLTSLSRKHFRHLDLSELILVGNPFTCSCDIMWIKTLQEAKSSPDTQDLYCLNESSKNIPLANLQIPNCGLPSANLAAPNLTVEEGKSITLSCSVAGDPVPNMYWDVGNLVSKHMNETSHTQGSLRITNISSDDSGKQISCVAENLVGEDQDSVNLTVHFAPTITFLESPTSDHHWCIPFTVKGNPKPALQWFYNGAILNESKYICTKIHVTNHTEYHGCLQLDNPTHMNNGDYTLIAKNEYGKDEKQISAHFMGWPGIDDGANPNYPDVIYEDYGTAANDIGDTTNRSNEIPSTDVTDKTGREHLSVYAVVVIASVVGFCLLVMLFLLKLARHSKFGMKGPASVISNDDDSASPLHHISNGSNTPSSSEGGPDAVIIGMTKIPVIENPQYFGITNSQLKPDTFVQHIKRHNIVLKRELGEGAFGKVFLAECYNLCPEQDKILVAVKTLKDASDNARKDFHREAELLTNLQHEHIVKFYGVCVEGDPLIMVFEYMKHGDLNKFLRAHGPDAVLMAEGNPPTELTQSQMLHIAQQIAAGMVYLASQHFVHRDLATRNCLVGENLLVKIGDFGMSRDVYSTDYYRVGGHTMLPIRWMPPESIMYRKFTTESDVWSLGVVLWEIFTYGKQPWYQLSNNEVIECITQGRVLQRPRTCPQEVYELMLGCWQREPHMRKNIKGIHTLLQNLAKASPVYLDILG
Briefly: Enzyme Fragment Complementation cell-based assay, TrkB. The note with it: U2OS-cells over-expressing TrkB; ligand 10 ng/mL; 3 hours incubation.
Source text: as §1, §2, §3

The next assay concerns the target T5, TrkC (Homo sapiens, UniProt Q16288).
T5 construct: expressed in transfected cells; host or cells: U2OS
Briefly: Enzyme Fragment Complementation cell-based assay, TrkC. The note with it: U2OS-cells over-expressing TrkC; ligand 10 ng/mL; 3 hours incubation.
Source text: as §1, §2, §3

The subject of assay [1] is ephrin type-B receptor 2 (EphB2). The note with it: Suzuki et al., FEBS Open Bio 2016; cited from earlier work.

T2 sequence (P08069 31-736 limits assumed): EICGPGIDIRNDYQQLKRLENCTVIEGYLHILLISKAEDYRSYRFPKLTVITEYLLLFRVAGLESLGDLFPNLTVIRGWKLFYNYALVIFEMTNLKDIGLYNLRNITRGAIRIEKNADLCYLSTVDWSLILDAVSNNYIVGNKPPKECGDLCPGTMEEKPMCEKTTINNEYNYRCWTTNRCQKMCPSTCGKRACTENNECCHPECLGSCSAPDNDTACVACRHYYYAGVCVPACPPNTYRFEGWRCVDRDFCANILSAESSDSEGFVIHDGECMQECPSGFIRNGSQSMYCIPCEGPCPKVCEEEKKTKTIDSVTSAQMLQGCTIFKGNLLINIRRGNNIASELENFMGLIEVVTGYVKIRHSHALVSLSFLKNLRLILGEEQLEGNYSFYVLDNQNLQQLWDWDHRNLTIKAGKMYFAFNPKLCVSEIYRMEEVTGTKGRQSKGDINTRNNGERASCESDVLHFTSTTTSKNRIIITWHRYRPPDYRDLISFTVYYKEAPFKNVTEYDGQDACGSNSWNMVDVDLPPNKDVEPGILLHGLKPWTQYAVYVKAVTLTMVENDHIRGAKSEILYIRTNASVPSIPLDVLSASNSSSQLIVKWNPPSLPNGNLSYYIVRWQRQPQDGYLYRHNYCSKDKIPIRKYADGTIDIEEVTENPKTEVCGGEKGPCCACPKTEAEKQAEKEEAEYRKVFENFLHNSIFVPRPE
T2 sequence (P08069 741-1367 limits assumed): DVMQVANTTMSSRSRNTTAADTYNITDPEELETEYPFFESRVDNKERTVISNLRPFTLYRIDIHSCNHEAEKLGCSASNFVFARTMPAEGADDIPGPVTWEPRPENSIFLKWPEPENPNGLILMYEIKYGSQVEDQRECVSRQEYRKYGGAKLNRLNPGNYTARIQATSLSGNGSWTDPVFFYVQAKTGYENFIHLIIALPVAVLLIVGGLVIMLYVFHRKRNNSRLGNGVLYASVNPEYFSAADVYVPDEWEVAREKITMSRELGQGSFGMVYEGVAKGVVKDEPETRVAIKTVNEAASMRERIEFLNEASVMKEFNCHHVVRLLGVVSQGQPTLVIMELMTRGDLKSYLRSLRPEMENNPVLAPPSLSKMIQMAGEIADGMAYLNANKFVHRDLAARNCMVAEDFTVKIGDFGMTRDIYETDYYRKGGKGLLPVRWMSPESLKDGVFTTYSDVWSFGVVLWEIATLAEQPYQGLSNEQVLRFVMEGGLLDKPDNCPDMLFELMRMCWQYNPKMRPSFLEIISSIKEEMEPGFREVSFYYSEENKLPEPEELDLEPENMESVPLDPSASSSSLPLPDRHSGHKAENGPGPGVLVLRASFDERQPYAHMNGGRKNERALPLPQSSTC
T5 sequence (Q16288 32-839): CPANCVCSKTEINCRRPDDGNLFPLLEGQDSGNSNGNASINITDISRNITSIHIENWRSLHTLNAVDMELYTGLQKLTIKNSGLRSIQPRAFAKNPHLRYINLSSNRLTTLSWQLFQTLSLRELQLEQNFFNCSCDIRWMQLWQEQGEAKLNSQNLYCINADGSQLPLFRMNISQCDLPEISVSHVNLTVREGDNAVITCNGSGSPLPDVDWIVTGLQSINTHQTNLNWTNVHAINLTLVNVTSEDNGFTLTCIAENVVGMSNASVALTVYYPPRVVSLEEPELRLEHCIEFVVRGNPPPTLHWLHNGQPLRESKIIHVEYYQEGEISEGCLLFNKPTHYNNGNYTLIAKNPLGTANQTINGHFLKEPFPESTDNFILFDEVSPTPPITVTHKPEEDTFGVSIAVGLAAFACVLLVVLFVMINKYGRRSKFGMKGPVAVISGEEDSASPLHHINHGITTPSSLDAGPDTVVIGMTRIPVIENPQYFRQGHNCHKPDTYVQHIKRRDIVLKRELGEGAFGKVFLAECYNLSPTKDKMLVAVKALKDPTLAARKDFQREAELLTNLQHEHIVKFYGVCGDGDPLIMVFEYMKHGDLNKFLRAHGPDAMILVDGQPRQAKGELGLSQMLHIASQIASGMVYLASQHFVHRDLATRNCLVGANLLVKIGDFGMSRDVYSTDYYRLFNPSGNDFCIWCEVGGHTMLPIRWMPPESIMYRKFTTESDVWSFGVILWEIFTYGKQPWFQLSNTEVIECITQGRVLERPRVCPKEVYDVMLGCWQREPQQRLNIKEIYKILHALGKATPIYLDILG
T1 sequence (P11362 22-822): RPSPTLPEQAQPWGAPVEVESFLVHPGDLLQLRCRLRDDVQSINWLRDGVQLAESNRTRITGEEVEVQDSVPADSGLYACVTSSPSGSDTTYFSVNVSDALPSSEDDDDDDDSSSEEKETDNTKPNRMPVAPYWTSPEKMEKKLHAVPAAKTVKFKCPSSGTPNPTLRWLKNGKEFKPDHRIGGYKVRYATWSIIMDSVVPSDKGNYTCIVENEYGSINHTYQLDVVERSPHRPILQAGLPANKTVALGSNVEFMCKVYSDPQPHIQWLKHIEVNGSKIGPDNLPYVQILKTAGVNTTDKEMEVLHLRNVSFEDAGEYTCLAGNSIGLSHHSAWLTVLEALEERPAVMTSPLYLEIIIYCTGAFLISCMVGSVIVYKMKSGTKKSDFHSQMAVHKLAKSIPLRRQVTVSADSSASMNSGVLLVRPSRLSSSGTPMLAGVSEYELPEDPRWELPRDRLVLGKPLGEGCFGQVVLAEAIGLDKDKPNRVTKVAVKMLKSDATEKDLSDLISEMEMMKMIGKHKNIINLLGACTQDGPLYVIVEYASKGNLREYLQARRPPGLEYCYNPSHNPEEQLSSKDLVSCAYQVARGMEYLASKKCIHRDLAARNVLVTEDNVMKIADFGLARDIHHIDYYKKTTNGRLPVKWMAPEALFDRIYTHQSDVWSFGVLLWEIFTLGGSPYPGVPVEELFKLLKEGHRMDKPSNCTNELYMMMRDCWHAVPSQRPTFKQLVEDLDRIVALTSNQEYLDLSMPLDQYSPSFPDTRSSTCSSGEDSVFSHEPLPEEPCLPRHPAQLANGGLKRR

Take `O=c1[nH]c(=O)n(-c2ccc(Oc3ccccc3)cc2)c(=O)n1-c1ccccc1` [Example 1, 1-(4-phenoxyphenyl)-3-phenyl-1,3,5-triazinane-2,4,6-trione]: the half-maximal effective concentration (EC50) at FGFR1 amounted to 890 nM; at IGF1R it was 1800 nM; on TrkA, 1300 nM; at TrkB it was 1400 nM; on TrkC it was 1400 nM.

Regarding `COc1cccc(-n2c(=O)[nH]c(=O)n(-c3ccc(Oc4ccccc4)cc3)c2=O)c1` [Example 4, 1-(3-methoxyphenyl)-3-(4-phenoxyphenyl)-1,3,5-triazinane-2,4,6-trione], the half-maximal effective concentration (EC50) at FGFR1 came out at 580 nM; at IGF1R, 840 nM; at TrkA, 830 nM; on TrkB it was 950 nM.

Turning to `O=c1[nH]c(=O)n(-c2ccc(OCc3ccccc3)cc2)c(=O)n1-c1ccccc1` [Example 6, 1-[4-(benzyloxy)phenyl]-3-phenyl-1,3,5-triazinane-2,4,6-trione], the EC50 at IGF1R and at TrkA was 4400 nM throughout.

In the case of `O=c1[nH]c(=O)n(-c2ccc(Oc3ccc(Cl)cc3)cc2)c(=O)n1-c1ccccc1` [Example 7, 1-[4-(4-chlorophenoxy)phenyl]-3-phenyl-1,3,5-triazinane-2,4,6-trione], the EC50 turned out to be 2600 nM on IGF1R and 3900 nM at TrkA.

Consider `N#Cc1ccc(Oc2ccc(-n3c(=O)[nH]c(=O)n(-c4ccccc4)c3=O)cc2)cc1` [Example 8, 4-[4-(2,4,6-trioxo-3-phenyl-1,3,5-triazinan-1-yl)phenoxy]benzonitrile], for which the half-maximal effective concentration (EC50) amounted to 2200 nM at IGF1R and 1600 nM at TrkA.

With `COc1cc(Oc2ccccc2)ccc1-n1c(=O)[nH]c(=O)n(-c2ccccc2)c1=O` [Example 9, 1-(2-methoxy-4-phenoxyphenyl)-3-phenyl-1,3,5-triazinane-2,4,6-trione], the EC50 at FGFR1 was 170 nM; at IGF1R it was 270 nM; on TrkA, 230 nM; on TrkB, 270 nM.

On to `O=c1[nH]c(=O)n(-c2ccc(N3CCOCC3)cc2)c(=O)n1-c1ccc(Oc2ccccc2)cc1` [Example 10, 1-[4-(morpholin-4-yl)phenyl]-3-(4-phenoxyphenyl)-1,3,5-triazinane-2,4,6-trione], for which the 50% effective concentration (EC50) on FGFR1 is 2800 nM; at TrkA, 1100 nM; on TrkB, 2200 nM.

As for `COc1cc(-n2c(=O)[nH]c(=O)n(-c3ccccc3)c2=O)ccc1Oc1ccccc1` [Example 11, 1-(3-methoxy-4-phenoxyphenyl)-3-phenyl-1,3,5-triazinane-2,4,6-trione], the half-maximal effective concentration (EC50) at FGFR1 was 340 nM; at IGF1R, 220 nM; on TrkA, 320 nM; on TrkB, 450 nM.

`N#Cc1cc(-n2c(=O)[nH]c(=O)n(-c3ccccc3)c2=O)ccc1Oc1ccccc1` [Example 12, 2-phenoxy-5-(2,4,6-trioxo-3-phenyl-1,3,5-triazinan-1-yl)benzonitrile]: the concentration giving a half-maximal response (EC50) at FGFR1 worked out at 4700 nM; on TrkA, 5900 nM; at TrkB, 2400 nM.

On to `Cc1cn(Cc2ccccc2)c2ccc(-n3c(=O)[nH]c(=O)n(C)c3=O)cc12` [Example 38, 1-(1-benzyl-3-methyl-1H-indol-5-yl)-3-methyl-1,3,5-triazinane-2,4,6-trione], for which the results for the 50% effective concentration (EC50) at TrkA, at TrkB and on TrkC were 4500 nM, 4200 nM and 2400 nM, respectively.

For `O=c1[nH]c(=O)n(-c2ccc(Oc3ccccc3)c(Cl)c2)c(=O)n1-c1ccccc1` [Example 39, 1-(3-chloro-4-phenoxyphenyl)-3-phenyl-1,3,5-triazinane-2,4,6-trione], the EC50 at TrkA worked out at 1400 nM; at TrkB it was 680 nM; at TrkC, 880 nM.

Consider `Cc1ccc(-n2c(=O)[nH]c(=O)n(-c3ccc(Oc4ccccc4)c(C)c3)c2=O)s1` [Example 40, 1-(3-methyl-4-phenoxyphenyl)-3-(5-methylthiophen-2-yl)-1,3,5-triazinane-2,4,6-trione], for which the half-maximal effective concentration (EC50) was determined as 260 nM at TrkA, 280 nM at TrkB and 140 nM at TrkC.

For `Cc1ccc(-n2c(=O)[nH]c(=O)n(-c3ccc(Oc4ccccc4)c(C)c3)c2=O)cc1` [Example 41, 1-(3-methyl-4-phenoxyphenyl)-3-(4-methylphenyl)-1,3,5-triazinane-2,4,6-trione], the half-maximal effective concentration (EC50) on TrkA turned out to be 250 nM; at TrkB it was 210 nM; on TrkC, 140 nM.

`Cc1cc(-n2c(=O)[nH]c(=O)n(-c3cccc4[nH]ccc34)c2=O)ccc1Oc1ccccc1` [Example 49, 1-(1H-indol-4-yl)-3-(3-methyl-4-phenoxyphenyl)-1,3,5-triazinane-2,4,6-trione]: the values for the EC50 on TrkA, on TrkB and at TrkC were 190 nM, 790 nM and 2000 nM, respectively.

On to `COCCOc1cc(-n2c(=O)[nH]c(=O)n(-c3ccc(C)cc3)c2=O)ccc1Oc1ccccc1` [Example 56, 1-[3-(2-methoxyethoxy)-4-phenoxyphenyl]-3-(4-methylphenyl)-1,3,5-triazinane-2,4,6-trione], for which the concentration giving a half-maximal response (EC50) at TrkA was 290 nM; on TrkB it was 110 nM; at TrkC it was 170 nM.

With `COCCOc1cc(-n2c(=O)[nH]c(=O)n(-c3cccc(C)c3)c2=O)ccc1Oc1ccccc1` [Example 57, 1-[3-(2-methoxyethoxy)-4-phenoxyphenyl]-3-(3-methylphenyl)-1,3,5-triazinane-2,4,6-trione], the EC50 amounted to 180 nM on TrkA, 120 nM at TrkB and 90 nM on TrkC.

For `COCCOc1cc(-n2c(=O)[nH]c(=O)n(-c3cccc(Cl)c3)c2=O)ccc1Oc1ccccc1` [Example 58, 1-(3-chlorophenyl)-3-[3-(2-methoxyethoxy)-4-phenoxyphenyl]-1,3,5-triazinane-2,4,6-trione], the EC50 on TrkA was 220 nM; at TrkB, 230 nM; on TrkC, 180 nM.

For the molecule `COCCOc1cc(-n2c(=O)[nH]c(=O)n(-c3ccc(Cl)cc3)c2=O)ccc1Oc1ccccc1` [Example 59, 1-(4-chlorophenyl)-3-[3-(2-methoxyethoxy)-4-phenoxyphenyl]-1,3,5-triazinane-2,4,6-trione], the EC50 at TrkA turned out to be 480 nM; at TrkB, 460 nM; at TrkC it was 330 nM.

As for `Cn1c(=O)[nH]c(=O)n(-c2ccc(Oc3ccc(Cl)cc3)cc2)c1=O` [Example 64, 1-[4-(4-chlorophenoxy)phenyl]-3-methyl-1,3,5-triazinane-2,4,6-trione], the EC50 at TrkA was 4400 nM; on TrkB, 5900 nM; at TrkC, 9600 nM.

Turning to `Cn1c(=O)[nH]c(=O)n(-c2ccc(Oc3ccccc3)c(Cl)c2)c1=O` [Example 65, 1-(3-chloro-4-phenoxyphenyl)-3-methyl-1,3,5-triazinane-2,4,6-trione], the concentration for a half-maximal effect (EC50) at TrkA amounted to 4500 nM; on TrkB it was 1600 nM; on TrkC it was 320 nM.

For `Cc1cc(-n2c(=O)[nH]c(=O)n(-c3cnn(-c4ccccc4)c3)c2=O)ccc1Oc1ccccc1` [Example 68, 1-(3-methyl-4-phenoxyphenyl)-3-(1-phenyl-1H-pyrazol-4-yl)-1,3,5-triazinane-2,4,6-trione], the concentration for a half-maximal effect (EC50) on TrkA was 230 nM; at TrkB, 360 nM; on TrkC, 1100 nM.

Take `O=c1[nH]c(=O)n(-c2ccc(Oc3ccccc3)c(Br)c2)c(=O)n1-c1ccccc1` [Example 69, 1-(3-bromo-4-phenoxyphenyl)-3-phenyl-1,3,5-triazinane-2,4,6-trione]: the EC50 at TrkA was found to be 220 nM; at TrkB, 250 nM; at TrkC, 190 nM.

Turning to `Cc1cc(-n2c(=O)[nH]c(=O)n(C)c2=O)ccc1Oc1ccc(SC(F)(F)F)cc1` [toltrazuril, 1-methyl-3-(3-methyl-4-{4-[(trifluoromethyl)sulfanyl]phenoxy}phenyl)-1,3,5-triazinane-2,4,6-trione], the “inhibition of binding of β-amyloid oligomers to EphB2” value in assay [1] was 30%.
